Reference: patent US20220409577A1, “INTRATUMORAL ADMINISTRATION OF ASCORBIC ACID AND QUINONE COMPOUNDS FOR TUMOR TREATMENT” (IC-MedTech Corp., priority 2021, published 2022)

Tested on: Glioblastoma cells (GS9L)
Experiment: Antitumor activity in a glioblastoma xenograft mouse model (GS9L), intracranial treatment
Type: in vivo, Balb/c nude mice
Conditions: glioblastoma-bearing mice; single intracranial injection on Day 4; TMZ 4 mg/kg; L-ascorbic acid 1.4 or 7 mg/kg + menadione 14 or 70 μg/kg, then oral L-ascorbic acid 15 g/L and menadione 150 mg/L in water daily
Description: Six-week-old male Balb/c nude mice were maintained in specific pathogen-free conditions. Glioblastoma cells (GS9L) were cultured in DMEM supplemented with 10% FBS, penicillin (100 U/mL), and streptomycin (100 mg/L) at 37° C. in a humidified atmosphere containing 5% CO2. After deep anesthesia, the mice were positioned in a stereotactic frame. A small craniectomy was performed at 2-3 mm from the midline and 1 mm anterior to the coronal suture. The glioblastoma cells (5×10^5 cells in 5 μL) were stereotactically injected into the brain parenchyma at a depth of 3 mm on Day 1 using an automated injector.
Vitamin C (L-ascorbic acid) was dissolved in PBS at 10 mM (pH 7.4). Menadione and temozolomide (TMZ) were each dissolved in DMSO at 10 mM as a stock solution and diluted in PBS when in use. The final concentration of DMSO was below 1%. […] The glioblastoma-bearing mice were analyzed on Days 4, 7, 14, 21, and 28 (i.e., 0, 3, 10, 17, and 24 days after drug administration) by MRI to determine the size of the glioblastoma. […]

## Cn1nnc2c(C(N)=O)ncn2c1=O [TMZ, temozolomide]
  side-effects (e.g., fever, tetraplegia, or convulsions): experienced side-effects (e.g., fever, tetraplegia, or convulsions)
